This note sets out measurements from US20240246942A1, “KINASE INHIBITORS FOR THE TREATMENT OF NEURODEGENERATIVE DISEASES” (priority 2020, published 2024).

Holding throughout (test): biochemical
The target in assay [1] is T1, panel of 374 wild-type kinases (Homo sapiens, UniProt Q5TCX8).
T1 construct: purchased Reaction Biology Corporation
Conditions: read-out: % Enzyme Activity (relative to DMSO controls), MLK4.

Assay [2] concerns the target T2, panel of 374 wild-type kinases (Homo sapiens, UniProt Q99759).
T2 construct: purchased Reaction Biology Corporation
T2 sequence (Q99759 1-626): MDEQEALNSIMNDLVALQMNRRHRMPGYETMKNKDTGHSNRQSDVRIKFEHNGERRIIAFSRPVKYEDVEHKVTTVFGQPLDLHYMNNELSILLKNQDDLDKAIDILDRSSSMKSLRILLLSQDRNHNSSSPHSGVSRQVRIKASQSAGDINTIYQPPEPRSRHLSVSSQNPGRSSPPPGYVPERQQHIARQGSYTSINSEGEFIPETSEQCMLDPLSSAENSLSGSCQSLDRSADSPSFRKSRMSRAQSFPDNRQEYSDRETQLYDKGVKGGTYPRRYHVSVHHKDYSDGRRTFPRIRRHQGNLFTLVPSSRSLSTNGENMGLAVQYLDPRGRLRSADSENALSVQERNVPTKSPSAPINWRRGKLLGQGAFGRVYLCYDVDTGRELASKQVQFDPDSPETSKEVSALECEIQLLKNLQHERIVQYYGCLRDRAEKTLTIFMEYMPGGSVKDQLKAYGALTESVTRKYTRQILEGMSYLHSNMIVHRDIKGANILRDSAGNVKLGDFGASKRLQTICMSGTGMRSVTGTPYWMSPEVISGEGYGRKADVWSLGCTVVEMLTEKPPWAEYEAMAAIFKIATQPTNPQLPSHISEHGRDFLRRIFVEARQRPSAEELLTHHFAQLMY
To be noted: read-out: % Enzyme Activity (relative to DMSO controls), MEKK3.

Assay [3] addresses T3, panel of 374 wild-type kinases (Homo sapiens, UniProt Q96GD4).
T3 construct: purchased Reaction Biology Corporation
To be noted: read-out: % Enzyme Activity (relative to DMSO controls), Aurora B.

Assay [4] deals with T4, panel of 374 wild-type kinases (Homo sapiens, UniProt Q9H2K8).
T4 construct: purchased Reaction Biology Corporation
T4 sequence (Q9H2K8 1-898): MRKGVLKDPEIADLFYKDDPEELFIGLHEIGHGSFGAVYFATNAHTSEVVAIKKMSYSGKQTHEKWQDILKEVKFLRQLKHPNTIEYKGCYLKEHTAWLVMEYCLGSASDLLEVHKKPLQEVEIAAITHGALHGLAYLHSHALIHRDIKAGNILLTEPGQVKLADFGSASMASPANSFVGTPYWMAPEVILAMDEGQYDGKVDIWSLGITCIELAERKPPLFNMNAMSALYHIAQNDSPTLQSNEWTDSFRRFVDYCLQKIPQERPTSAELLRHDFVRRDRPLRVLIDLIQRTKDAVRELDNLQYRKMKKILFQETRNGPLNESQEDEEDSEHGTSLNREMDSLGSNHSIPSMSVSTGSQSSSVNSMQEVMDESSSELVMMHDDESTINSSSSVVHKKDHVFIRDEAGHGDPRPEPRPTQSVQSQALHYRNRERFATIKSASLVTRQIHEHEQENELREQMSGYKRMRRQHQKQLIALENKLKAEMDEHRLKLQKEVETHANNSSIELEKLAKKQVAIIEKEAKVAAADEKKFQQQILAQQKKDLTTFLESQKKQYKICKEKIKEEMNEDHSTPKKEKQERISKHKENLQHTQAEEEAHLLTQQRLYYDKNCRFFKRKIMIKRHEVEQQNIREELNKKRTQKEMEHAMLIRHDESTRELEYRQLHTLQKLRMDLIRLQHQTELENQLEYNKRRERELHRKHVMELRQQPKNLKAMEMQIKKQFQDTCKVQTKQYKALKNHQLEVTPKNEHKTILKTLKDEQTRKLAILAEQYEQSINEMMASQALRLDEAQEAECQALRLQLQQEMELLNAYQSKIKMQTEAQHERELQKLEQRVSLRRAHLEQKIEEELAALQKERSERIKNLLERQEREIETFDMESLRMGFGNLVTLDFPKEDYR
To be noted: read-out: % Enzyme Activity (relative to DMSO controls), kinase TAOK3/JIK.

Assay [5] concerns the target T5, panel of 374 wild-type kinases (Homo sapiens, UniProt Q9Y2K2).
T5 construct: purchased Reaction Biology Corporation
Conditions: read-out: % Enzyme Activity (relative to DMSO controls), kinase SIK3.

In assay [6] the target is T6, panel of 374 wild-type kinases (Homo sapiens, UniProt Q8NE63).
T6 construct: purchased Reaction Biology Corporation
T6 sequence (Q8NE63 1-616): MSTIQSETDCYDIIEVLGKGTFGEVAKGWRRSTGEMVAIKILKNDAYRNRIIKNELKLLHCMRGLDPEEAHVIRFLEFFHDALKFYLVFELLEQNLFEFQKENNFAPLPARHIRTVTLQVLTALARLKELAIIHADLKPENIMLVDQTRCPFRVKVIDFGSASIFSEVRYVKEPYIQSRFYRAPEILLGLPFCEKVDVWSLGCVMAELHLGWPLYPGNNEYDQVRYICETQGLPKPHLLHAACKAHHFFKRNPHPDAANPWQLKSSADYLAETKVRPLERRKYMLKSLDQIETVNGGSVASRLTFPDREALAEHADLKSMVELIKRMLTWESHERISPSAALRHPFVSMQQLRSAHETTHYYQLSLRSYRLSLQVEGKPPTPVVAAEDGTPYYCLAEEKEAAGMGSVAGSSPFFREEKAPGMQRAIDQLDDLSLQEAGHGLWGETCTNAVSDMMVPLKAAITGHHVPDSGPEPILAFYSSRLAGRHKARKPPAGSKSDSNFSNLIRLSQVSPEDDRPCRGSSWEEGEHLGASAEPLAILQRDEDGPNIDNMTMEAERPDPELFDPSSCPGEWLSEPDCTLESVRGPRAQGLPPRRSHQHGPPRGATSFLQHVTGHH
Conditions: read-out: % Enzyme Activity (relative to DMSO controls), HIPK4.

T1 sequence (Q5TCX8 whole entry): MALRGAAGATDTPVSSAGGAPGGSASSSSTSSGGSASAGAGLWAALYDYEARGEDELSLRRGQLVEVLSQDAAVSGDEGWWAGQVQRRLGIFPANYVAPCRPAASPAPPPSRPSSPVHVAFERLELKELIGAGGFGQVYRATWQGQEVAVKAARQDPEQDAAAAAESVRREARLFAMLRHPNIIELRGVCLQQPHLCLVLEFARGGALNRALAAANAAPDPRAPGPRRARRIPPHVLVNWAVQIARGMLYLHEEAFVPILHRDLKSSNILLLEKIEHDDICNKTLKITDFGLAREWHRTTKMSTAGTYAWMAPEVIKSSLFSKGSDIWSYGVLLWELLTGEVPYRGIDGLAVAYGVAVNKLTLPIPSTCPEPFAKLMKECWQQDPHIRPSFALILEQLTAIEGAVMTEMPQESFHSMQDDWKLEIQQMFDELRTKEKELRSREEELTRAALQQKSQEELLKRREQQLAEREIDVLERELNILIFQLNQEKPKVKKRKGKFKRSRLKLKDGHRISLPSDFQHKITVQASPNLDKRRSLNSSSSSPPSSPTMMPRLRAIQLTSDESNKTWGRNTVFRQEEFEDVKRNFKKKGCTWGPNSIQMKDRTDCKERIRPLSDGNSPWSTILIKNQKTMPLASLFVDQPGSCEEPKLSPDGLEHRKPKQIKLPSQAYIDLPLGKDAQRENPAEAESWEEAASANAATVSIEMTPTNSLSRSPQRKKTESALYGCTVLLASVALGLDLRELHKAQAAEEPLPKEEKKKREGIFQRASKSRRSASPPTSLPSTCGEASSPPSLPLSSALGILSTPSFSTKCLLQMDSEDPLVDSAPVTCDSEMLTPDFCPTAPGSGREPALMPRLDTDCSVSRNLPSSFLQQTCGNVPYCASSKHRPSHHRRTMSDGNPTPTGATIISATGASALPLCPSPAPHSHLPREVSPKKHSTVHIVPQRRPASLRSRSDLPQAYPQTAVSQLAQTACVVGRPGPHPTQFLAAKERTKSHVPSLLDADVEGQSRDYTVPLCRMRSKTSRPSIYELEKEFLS
T3 sequence (Q96GD4 whole entry): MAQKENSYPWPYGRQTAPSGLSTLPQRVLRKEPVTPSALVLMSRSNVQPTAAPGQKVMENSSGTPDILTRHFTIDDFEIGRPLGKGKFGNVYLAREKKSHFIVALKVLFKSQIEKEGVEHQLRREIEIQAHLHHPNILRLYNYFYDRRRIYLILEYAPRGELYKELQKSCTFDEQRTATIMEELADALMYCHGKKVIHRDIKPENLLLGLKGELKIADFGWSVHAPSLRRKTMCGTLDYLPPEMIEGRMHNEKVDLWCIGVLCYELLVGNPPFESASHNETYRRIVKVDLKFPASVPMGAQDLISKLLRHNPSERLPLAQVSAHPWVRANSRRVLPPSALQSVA
T5 sequence (Q9Y2K2 whole entry): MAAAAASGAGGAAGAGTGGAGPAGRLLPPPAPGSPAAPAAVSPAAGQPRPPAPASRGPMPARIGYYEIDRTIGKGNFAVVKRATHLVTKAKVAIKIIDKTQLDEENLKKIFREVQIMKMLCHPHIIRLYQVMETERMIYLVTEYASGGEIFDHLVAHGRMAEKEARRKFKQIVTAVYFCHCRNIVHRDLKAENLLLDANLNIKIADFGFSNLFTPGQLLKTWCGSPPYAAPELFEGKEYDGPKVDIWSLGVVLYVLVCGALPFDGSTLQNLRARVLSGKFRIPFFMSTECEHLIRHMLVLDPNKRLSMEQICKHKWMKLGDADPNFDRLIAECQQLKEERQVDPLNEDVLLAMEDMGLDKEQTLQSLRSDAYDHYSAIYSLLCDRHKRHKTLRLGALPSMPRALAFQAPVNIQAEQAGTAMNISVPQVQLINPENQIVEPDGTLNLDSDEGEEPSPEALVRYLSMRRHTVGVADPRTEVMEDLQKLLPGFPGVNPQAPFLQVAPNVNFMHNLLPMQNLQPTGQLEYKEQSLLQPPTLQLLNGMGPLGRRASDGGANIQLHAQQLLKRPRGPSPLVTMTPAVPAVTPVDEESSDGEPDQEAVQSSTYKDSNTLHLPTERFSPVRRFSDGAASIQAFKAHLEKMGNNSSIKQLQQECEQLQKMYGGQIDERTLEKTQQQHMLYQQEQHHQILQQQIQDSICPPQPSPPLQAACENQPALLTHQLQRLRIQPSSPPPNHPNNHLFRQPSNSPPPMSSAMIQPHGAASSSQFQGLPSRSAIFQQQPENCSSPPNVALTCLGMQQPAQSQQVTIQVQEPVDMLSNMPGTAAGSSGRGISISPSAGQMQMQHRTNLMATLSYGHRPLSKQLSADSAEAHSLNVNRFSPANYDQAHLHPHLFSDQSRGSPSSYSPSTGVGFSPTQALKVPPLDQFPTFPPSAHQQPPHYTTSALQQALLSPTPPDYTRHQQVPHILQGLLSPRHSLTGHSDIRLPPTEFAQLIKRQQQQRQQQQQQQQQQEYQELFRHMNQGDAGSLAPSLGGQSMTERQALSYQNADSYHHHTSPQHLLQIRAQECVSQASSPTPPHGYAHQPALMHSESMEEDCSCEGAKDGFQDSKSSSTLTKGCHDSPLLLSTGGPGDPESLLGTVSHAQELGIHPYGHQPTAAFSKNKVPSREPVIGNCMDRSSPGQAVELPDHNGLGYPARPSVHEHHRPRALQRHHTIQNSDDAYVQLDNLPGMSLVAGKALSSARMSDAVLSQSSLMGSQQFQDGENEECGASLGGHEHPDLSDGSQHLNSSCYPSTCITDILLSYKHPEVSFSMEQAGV

As to `O=C(Nc1cnn(-c2csc(C(=O)NC3COC3)c2)c1)Nc1ccccc1Cl` [Compound 17, 4-(4-(3-(2-chlorophenyl)ureido)-1H-pyrazol-1-yl)-N-(oxetan-3-yl)thiophene-2-carboxamide], the remaining activity at 5 µM in assay [1] was found to be 93.2%; in assay [2], 113%; in assay [3], 93%; in assay [4] it was 103%; in assay [5], 92.4%; in assay [6] it was 100%.

`O=C(Nc1cnn(-c2csc(C(=O)NC3COC3)c2)c1)Nc1c(F)cccc1Cl` [Compound 25, 4-(4-(3-(2-chloro-6-fluorophenyl)ureido)-1H-pyrazol-1-yl)-N-(oxetan-3-yl)thiophene-2-carboxamide]: the remaining activity at 5 µM was determined as 94.3% in assay [1]; 81.9% in assay [2]; 69.8% in assay [3]; 90.2% in assay [4]; 94.5% in assay [5]; 111% in assay [6].

In the case of `Cc1sc(C(=O)NC2COC2)cc1-n1cc(NC(=O)Nc2c(F)cccc2Cl)cn1` [Compound 27, 4-(4-(3-(2-chloro-6-fluorophenyl)ureido)-1H-pyrazol-1-yl)-5-methyl-N-(oxetan-3-yl)thiophene-2-carboxamide], the remaining activity at 10 µM in assay [1] (10 uM) is 85.2%; in assay [2] (10 uM), 113%; in assay [3] (10 uM), 96.4%; in assay [4] (10 uM), 98%; in assay [5] (10 uM) it was 86.9%; in assay [6] (10 uM), 98.4%.
